In assay [1] the test system is Pseudomonas aeruginosa ATCC 27853. Briefly: AST QC assay on AD-1 instrument, QC isolate P. aeruginosa ATCC 27853. Format: cell-based. From the text: (§1) The reportable range for the AST QC assay in some examples are adjusted such that the selected QC isolates have an MIC that is within the reportable range of the QC Assay. These extended ranges are only applied to QC testing and are not applied to AST assessment of patient samples. The process for assigning an MIC value to the QC organisms is the same or similar to that used for patient samples. […] This approach allows testing of, for example, CLSI recommended QC isolates without affecting the algorithms that are optimized around antimicrobial breakpoints. The algorithms used in ID QC or AST QC testing include those described above, for example, when the QC test samples are microbial isolates. For ID QC testing utilizing target microbial nucleic acids coupled to a bead, positive detection is achieved by comparing the cumulative count in the target (e.g., Green fluorescence channel) only against a threshold of objects that have brightness exceeding bead autofluorescence. Negative control detection is achieved by doing the same for eubacteria (e.g., Red fluorescence) channel only. For example, the number of bright red objects should not exceed a threshold in order to pass negative control.
(§2) The results of the identification assay drive antibiotic selection for antimicrobial susceptibility testing. The remaining samples undergo a pre-growth step to normalize growth rates during the approximately 1-hour FISH ID assay. The concentration of organisms in the purified inoculum was determined by repeating the quantitation process with a universal nucleic acid stain as previously described herein. […] Following cell immobilization, antimicrobial solutions in Mueller-Hinton agar were dispensed into the flowcells. Different antimicrobials were tested in separate flowcells, and only a single concentration of each antimicrobial was used. A growth control consisting of Mueller-Hinton agar without any antimicrobial was included for each run. A dark-field microscope and camera produced time-lapse images approximately every 10 minutes of progenitor cells growing into clones of daughter cells in each flowcell. The agar ensured daughter cells were immobilized and remained localized to each growing clone. Resistant clones grew while susceptible clones arrest or lyse over time (FIG. 90).
(§3) Custom image analysis software assigned unique spatial XY coordinates to individual progenitor cells (FIG. 91), allowing each growing clone across a series of time-lapse images to be identified. The intensity of each clone can be used as a metric of clone mass in each image. By measuring over time, this metric was used to generate growth curves for each individual clone (FIG. 92). The pattern of cell responses was used to determine the susceptibility of the overall population. Computer algorithms developed for each organism-antimicrobial combination convert microbial growth response into an MIC value using a mathematical regression model based on the response of isolates with known MICs for a single-concentration of a given antimicrobial. Once obtained, MIC values were interpreted using FDA, CLSI or EUCAST breakpoints along with expert rules to determine the categorical result (susceptible (S), intermediate (I) or resistant (R)). In addition to MICs, this technique was applied to phenotypic resistance mechanism detection.
(§4) In this example, the AST QC consumable insert consisted of 8 wells configured in a “pi” shape, as shown in the dark gray shading in FIG. 109. The AST QC panel was composed of seven CLSI recommended isolates that provide “on-scale” MIC results for all of the antimicrobial agents included in a sample blood culture test. A C. albicans isolate was used for Quality Control assessment of the […] component of the AD-1 Instrument System.
(§5) Table 9 below lists each organism and the corresponding antimicrobial agent that was tested in the AST QC assay. […]

For assay [2] the test system is unchanged. The following applies: cited from earlier work; for Organism QC Range (MIC): AST QC panel (Table 9), CLSI recommended isolate P. aeruginosa ATCC 27853; for Expected (MIC acceptance range): P. aeruginosa ATCC 27853.
In assay [3] the test system is Enterococcus faecalis ATCC 29212. The note with it: cited from earlier work; for Organism QC Range (MIC): AST QC panel (Table 9), CLSI recommended isolate E. faecalis ATCC 29212; for Expected (MIC acceptance range): E. faecalis ATCC 29212.
Assay [4] shares this test system. Briefly: AST QC assay on AD-1 instrument, QC isolate E. faecalis ATCC 29212. The note with it: unit assumed. Format: cell-based.
Excerpt: as §1, §2, §3, §4, §5

In assay [5] the test system is Escherichia coli ATCC 25922. Kind of assay: AST QC assay on AD-1 instrument, QC isolate E. coli ATCC 25922. The note with it: unit assumed. Format: cell-based.
Excerpt: as §1, §2, §3, §4, §5

Assay [6] relates to Escherichia coli ATCC 25922. The following applies: in µg/mL (unit assumed), cited from earlier work; for Organism QC Range (MIC): AST QC panel (Table 9), CLSI recommended isolate E. coli ATCC 25922; for Expected (MIC acceptance range): E. coli ATCC 25922.
[7] abbreviates: AST only report (Table 10), in µg/mL (unit assumed).
Setting [8] is: ID and AST report (Table 11), in µg/mL (unit assumed).

SMILES strings stand for the structures. Read-outs that look alike come from different tables or passages of the source.

The values that follow come from US10253355B2, “Instrument and system for rapid microorganism identification and antimicrobial agent susceptibility testing” (Accelerate Diagnostics, Inc., priority 2015, dated 2019).

Take `NCC[C@H](O)C(=O)N[C@@H]1C[C@H](N)[C@@H](O[C@H]2O[C@H](CN)[C@@H](O)[C@H](O)[C@H]2O)[C@H](O)[C@H]1O[C@H]1O[C@H](CO)[C@@H](O)[C@H](N)[C@H]1O` [Amikacin]: the Result (MIC value) in assay [1] (AST only report (Table 10)) was determined as 2 µg/mL; in assay [1] (ID and AST report (Table 11)), 2 µg/mL. For the same compound, the “Organism QC Range (MIC)” value in assay [2] (in µg/mL (unit assumed)) was 1-4. Besides, the “Expected (MIC acceptance range)” value in assay [2] (setting [7]) and in assay [2] (setting [8]) was 1-4 in each case.

As for `CC1(C)S[C@@H]2[C@H](NC(=O)[C@H](N)c3ccccc3)C(=O)N2[C@H]1C(=O)O` [Ampicillin], the “Organism QC Range (MIC)” value in assay [3] (in µg/mL (unit assumed)) is on record as 0.5-2. Besides, the “Expected (MIC acceptance range)” value in assay [3] (AST only report (Table 10)) was 0.5-2^. For the same compound, the Result (MIC value) in assay [4] (AST only report (Table 10)) was 1 µg/mL.

For the compound `C[C@H]1[C@H](NC(=O)/C(=N\OC(C)(C)C(=O)O)c2csc(N)n2)C(=O)N1S(=O)(=O)O` [Aztreonam], the Result (MIC value) in assay [1] (AST only report (Table 10)) was 4 µg/mL; in assay [1] (ID and AST report (Table 11)) it was 4 µg/mL. For the same compound, the “Organism QC Range (MIC)” value in assay [2] (in µg/mL (unit assumed)) was 2-8. The “Expected (MIC acceptance range)” value in assay [2] (setting [7]) and in assay [2] (setting [8]) was 2-8 throughout.

In the case of `Cc1nnc(SCC2=C(C(=O)O)N3C(=O)[C@@H](NC(=O)Cn4cnnn4)[C@H]3SC2)s1` [Cefazolin], the Result (MIC value) in assay [5] (AST only report (Table 10)) amounted to 2 µg/mL. For the same compound, the “Organism QC Range (MIC)” value in assay [6] is reported as 1-4. In assay [6] (AST only report (Table 10)), the “Expected (MIC acceptance range)” value is 1-4.

As for `CO/N=C(\C(=O)N[C@@H]1C(=O)N2C(C(=O)[O-])=C(C[N+]3(C)CCCC3)CS[C@H]12)c1csc(N)n1` [Cefepime], the Result (MIC value) is 2 µg/mL in assay [1] (AST only report (Table 10)); 2 µg/mL in assay [1] (ID and AST report (Table 11)). Moreover, the “Organism QC Range (MIC)” value in assay [2] (in µg/mL (unit assumed)) is reported as 0.5-4. In addition, the “Expected (MIC acceptance range)” value in assay [2] (AST only report (Table 10)) is reported as 0.5-4^; in assay [2] (ID and AST report (Table 11)), 0.5-4^.

As to `CCO/N=C(\C(=O)N[C@@H]1C(=O)N2C(C(=O)[O-])=C(Sc3nc(-c4cc[n+](C)cc4)cs3)CS[C@H]12)c1nsc(N)n1` [Ceftaroline], the Result (MIC value) was 1 µg/mL in assay [4] (AST only report (Table 10)); 1 µg/mL in assay [4] (ID and AST report (Table 11)).

On to `CC(C)(O/N=C(\C(=O)N[C@@H]1C(=O)N2C(C(=O)[O-])=C(C[n+]3ccccc3)CS[C@H]12)c1csc(N)n1)C(=O)O` [Ceftazidime], for which the Result (MIC value) came to 0.25 µg/mL in assay [5] (AST only report (Table 10)); 0.25 µg/mL in assay [5] (ID and AST report (Table 11)). Further, the “Organism QC Range (MIC)” value in assay [6] was 1-4. In addition, the “Expected (MIC acceptance range)” value in assay [6] (AST only report (Table 10)) was 0.06-0.5; in assay [6] (ID and AST report (Table 11)) it was 0.06-0.5.

For `O=C(O)c1cn(C2CC2)c2cc(N3CCNCC3)c(F)cc2c1=O` [Ciprofloxacin], the Result (MIC value) is 0.5 µg/mL in assay [1] (AST only report (Table 10)); 0.5 µg/mL in assay [1] (ID and AST report (Table 11)). Also, the “Expected (MIC acceptance range)” value in assay [2] (setting [7]) and in assay [2] (setting [8]) was 0.25-1 throughout.

For `CCCCCCCCCC(=O)N[C@@H](Cc1c[nH]c2ccccc12)C(=O)N[C@H](CC(N)=O)C(=O)N[C@@H](CC(=O)O)C(=O)N[C@@H]1C(=O)NCC(=O)N[C@@H](CCCN)C(=O)N[C@@H](CC(=O)O)C(=O)N[C@H](C)C(=O)N[C@@H](CC(=O)O)C(=O)NCC(=O)N[C@H](CO)C(=O)N[C@@H]([C@H](C)CC(=O)O)C(=O)N[C@@H](CC(=O)c2ccccc2N)C(=O)O[C@@H]1C` [Daptomycin], the “Organism QC Range (MIC)” value in assay [3] (in µg/mL (unit assumed)) is recorded as 1-4. Moreover, the “Expected (MIC acceptance range)” value in assay [3] (setting [7]) and in assay [3] (setting [8]) was 1-4 each time. The Result (MIC value) in assay [4] (AST only report (Table 10)) came out at 2 µg/mL; in assay [4] (ID and AST report (Table 11)), 2 µg/mL.
